Ki data for four compounds are collected here from ChEMBL document CHEMBL3621038, “Structure-Affinity Relationship Analysis of Selective FKBP51 Ligands” (J Med Chem, 2015).

The structures appear in SMILES notation. Some results are limits rather than exact numbers.

In assay [1] the target is Peptidyl-prolyl cis-trans isomerase FKBP1A (Homo sapiens, UniProt P62942). Description: Binding affinity to FKBP12 (unknown origin) by competitive fluorescence polarization assay. On the technique in general: In fluorescence polarisation assays a small probe gives low polarisation when free and higher when bound to something large.
Peptidyl-prolyl cis-trans isomerase FKBP1A, sequence (P62942 whole entry): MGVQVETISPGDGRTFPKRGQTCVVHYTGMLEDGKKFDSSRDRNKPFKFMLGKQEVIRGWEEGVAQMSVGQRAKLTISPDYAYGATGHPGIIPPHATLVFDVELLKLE
Assay [2] deals with T1, Peptidyl-prolyl cis-trans isomerase FKBP5 (Homo sapiens, UniProt Q13451).
T1 sequence (Q13451 whole entry): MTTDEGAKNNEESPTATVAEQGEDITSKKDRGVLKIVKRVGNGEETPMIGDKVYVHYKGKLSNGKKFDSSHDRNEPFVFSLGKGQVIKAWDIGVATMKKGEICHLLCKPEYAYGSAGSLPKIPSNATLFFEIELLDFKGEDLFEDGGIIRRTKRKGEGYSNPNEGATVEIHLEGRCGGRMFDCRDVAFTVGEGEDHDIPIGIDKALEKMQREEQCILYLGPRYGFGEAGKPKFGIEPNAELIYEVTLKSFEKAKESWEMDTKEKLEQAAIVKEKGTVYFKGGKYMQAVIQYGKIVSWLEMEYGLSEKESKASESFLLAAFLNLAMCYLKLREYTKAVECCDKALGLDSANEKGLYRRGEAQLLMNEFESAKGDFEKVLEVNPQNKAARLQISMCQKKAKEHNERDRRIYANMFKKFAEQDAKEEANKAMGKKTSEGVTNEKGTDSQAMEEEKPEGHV

Assay [3] deals with T2, Peptidyl-prolyl cis-trans isomerase FKBP4 (Homo sapiens, UniProt Q02790).
T2 sequence (Q02790 whole entry): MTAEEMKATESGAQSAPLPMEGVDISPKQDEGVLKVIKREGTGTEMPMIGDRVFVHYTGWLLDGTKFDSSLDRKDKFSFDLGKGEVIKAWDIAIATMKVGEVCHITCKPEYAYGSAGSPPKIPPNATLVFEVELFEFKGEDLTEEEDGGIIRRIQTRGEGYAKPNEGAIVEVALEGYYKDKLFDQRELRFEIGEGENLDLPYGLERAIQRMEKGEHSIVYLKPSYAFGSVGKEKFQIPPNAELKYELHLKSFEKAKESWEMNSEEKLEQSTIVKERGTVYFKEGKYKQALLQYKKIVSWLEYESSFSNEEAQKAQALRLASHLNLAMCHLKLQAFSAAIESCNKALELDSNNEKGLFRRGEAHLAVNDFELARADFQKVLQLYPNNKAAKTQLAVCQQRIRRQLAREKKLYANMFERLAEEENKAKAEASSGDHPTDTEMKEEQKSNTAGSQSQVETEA
Description: Binding affinity to FKBP52 (unknown origin) by competitive fluorescence polarization assay.

In the case of `COc1ccc(CC[C@@H](OC(=O)[C@@H]2CCCCN2C(=O)[C@H](c2cc(OC)c(OC)c(OC)c2)C2CCCCC2)c2cccc(OCC(=O)O)c2)cc1OC`, the inhibition constant Ki – broadly, a dissociation constant, usually derived from enzyme kinetics or from competition with a known ligand – in assay [1] is 90 nM; in assay [2], 4 nM; in assay [3], over 50000 nM.
Consider `COc1cc(OC)cc([C@@H](C(=O)N2CCCC[C@H]2C(=O)O[C@H](CCc2ccc(OC)c(OC)c2)c2cccc(OCC(=O)O)c2)C2CCCCC2)c1`, for which the figures for the Ki in assay [1], in assay [2] and in assay [3] were 600 nM, 110 nM and over 50000 nM, respectively.
The like results for `COc1cccc([C@@H](C(=O)N2CCCC[C@H]2C(=O)O[C@H](CCc2ccc(OC)c(OC)c2)c2cccc(OCC(=O)O)c2)C2CCCCC2)c1` were, in that order, 1200 nM, 160 nM and over 100000 nM.
As to `COc1ccc(CC[C@@H](OC(=O)[C@@H]2CCCCN2C(=O)CC2CCCCC2)c2cccc(OCC(=O)O)c2)cc1OC`, the Ki in assay [1] is 300 nM; in assay [3], 9700 nM.
